According to patent EP0487382A1, “Use of buflomedil for the protection of the myocardium by coronary angioplasty” (LABORATOIRE L. LAFON, priority 1990, dated 1992):

Assays:
[1] = test system: chiens; test: Coronary balloon occlusion (15 min) with follow-up of reperfusion in dogs, second series; assay type: in vivo; conditions: 10 mg/kg i.v.
Procedure: (§1) 1 - On a réalisé des essais comparatifs chez des chiens auxquels on a administré par voie intraveineuse en 15 minutes : • soit du buflomédil (chlorhydrate) à la dose de 10 mg/kg; • soit un placebo.
(§2) les chiens ont reçu une prémédication consistant en 1,0 mg par kg de sulfate de morphine après une nuit de diète ainsi que 325 mg d'aspirine par voie orale.
(§3) Les chiens ont été anesthésiés avec 12,5 mg/kg de thiopental et 72 mg/kg de chloralose par voie intraveineuse. On met en place un cathéter au niveau de l'artère fémorale pour la mesure de la pression artérielle et une canule sur la veine fémorale pour l'administration du produit à tester. L'artère carotide gauche reçoit une canule pour la mise en place du cathéter d'angioplastie, tandis que l'on met en place un cathéter au niveau du ventricule gauche via l'artère fémorale contralatérale.
Les animaux sont alors héparinisés avec 500 unités U.I. par kg par voie I.V. On procède alors à l'administration du produit à tester ou du placebo à raison, pour le buflomédil, de 10 mg par mn. On administre ensuite de la lidocaïne par voie I.V. à raison de 1 mg/kg sous forme de bolus, puis par perfusion à raison de 1 mg par mn.
30 mn après la fin de la perfusion, on met en place un ballonnet d'angioplastie de 2,5-3,5 mm choisi en fonction de la taille des artères coronaires dans l'artère coronaire descendante antérieure gauche. Le ballon a été gonflé à une pression de 4.10⁵ Pa pendant 15 mn.
2 - Dans une deuxième série d'essais comparatifs, on a utilisé le même mode opératoire et les mêmes produits (buflomédil chlorhydrate à la dose de 10 mg/kg d'une part et placebo d'autre part) et on a suivi la reperfusion après 15 minutes d'occlusion avec un ballonnet.

[2] = test system: chiens; test: Coronary balloon angioplasty occlusion (15 min) and reperfusion in anaesthetised dogs, first series; assay type: in vivo
Procedure: as §1
Le protocole opératoire était le suivant :
as §2, §3
Les animaux sont alors héparinisés avec 500 unités U.I. par kg par voie I.V. On procède alors à l'administration du produit à tester ou du placebo à raison, pour le buflomédil, de 10 mg par mn. On administre ensuite de la lidocaïne par voie I.V. à raison de 1 mg/kg sous forme de bolus, puis par perfusion à raison de 1 mg par mn. […]

[3] = at the end of the occlusion, versus placebo

COc1cc(OC)c(C(=O)CCCN2CCCC2)c(OC)c1 [buflomédil, 4-(1-pyrrolidinyl)-1-(2,4,6-triméthoxyphényl)-1-butanone]
fraction d'éjection ([1]; 30 minutes after reperfusion, placebo 69 %): 89 % de la valeur normale du groupe
fraction d'éjection ([1]; 60 minutes after reperfusion, placebo 74 %): 95%
zone de dysfonctionnement ([1]; after reperfusion, versus placebo): diminution
fraction d'éjection [1, 3]: n'a pas observé à la fin de l'occlusion de différence
perfusion sanguine transmurale [1, 3]: n'a pas observé à la fin de l'occlusion de différence
flux pendant la reperfusion ([1]; during reperfusion, versus placebo): flux accru
flux sanguins tissulaires au niveau du myocarde ([2]; 10 mg/kg i.v., measured during ischaemia in the ischaemic regions, versus placebo (Figure)): plus élevés
fibrillation ventriculaire lors de la reperfusion ([2]; buflomédil (chlorhydrate) 10 mg/kg i.v. over 15 min, 15 min balloon occlusion, placebo: 4 cas sur 10): n'a pas observé de fibrillation ventriculaire
